Source: patent publication US11814428B2, “Anti-PTCRA antibody-drug conjugates and uses thereof” (REGENERON PHARMACEUTICALS, INC., priority 2019, dated 2023)

System: SupT1 cells
Experiment: Proliferation of T-ALL cells treated with SRC-family kinase inhibitor
Assay type: cell-based, human
Settings: PTCRA-dependent T-ALL cell lines

Cc1ccc(-c2nn(C(C)(C)C)c3ncnc(N)c23)cc1 [PP1]
anti-proliferative response: dose-dependent anti-proliferative response
